Results on three molecules are retold here after paper PMC7736581, “Activation of the IRE1 RNase through remodeling of the kinase front pocket by ATP-competitive ligands” (Nature Communications, 2020).

Test in all cases: biochemical
What all share (design): Invitrogen kinase panel: Z'Lyte activity (ATP at Km) or LanthaScreen competitive ATP-site binding, percent inhibition

In experiment [1] the target is T1, Abl (Homo sapiens, UniProt P00519).
T1 construct: gene ABL1

The target in experiment [2] is T2, Aurora_A (Homo sapiens, UniProt O14965).
T2 construct: gene AURKA
T2 sequence (O14965 1-403): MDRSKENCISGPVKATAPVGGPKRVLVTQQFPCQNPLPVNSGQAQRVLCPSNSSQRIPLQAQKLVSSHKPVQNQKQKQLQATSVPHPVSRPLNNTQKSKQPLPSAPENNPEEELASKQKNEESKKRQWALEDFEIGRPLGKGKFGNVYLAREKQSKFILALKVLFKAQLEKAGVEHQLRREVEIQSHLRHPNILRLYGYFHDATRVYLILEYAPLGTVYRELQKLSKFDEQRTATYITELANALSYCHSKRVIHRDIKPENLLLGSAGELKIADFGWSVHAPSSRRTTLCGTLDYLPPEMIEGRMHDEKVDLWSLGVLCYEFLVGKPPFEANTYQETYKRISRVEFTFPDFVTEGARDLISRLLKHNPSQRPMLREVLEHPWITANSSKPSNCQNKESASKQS

In experiment [3] the target is T3, Aurora_B (Homo sapiens, UniProt Q96GD4).
T3 construct: gene AURKB

Experiment [4] concerns the target BTK (Homo sapiens, UniProt Q06187).
Experiment [5] concerns the target T4, CHK1 (Homo sapiens, UniProt O14757).
T4 construct: gene CHEK1
T4 sequence (O14757 1-476): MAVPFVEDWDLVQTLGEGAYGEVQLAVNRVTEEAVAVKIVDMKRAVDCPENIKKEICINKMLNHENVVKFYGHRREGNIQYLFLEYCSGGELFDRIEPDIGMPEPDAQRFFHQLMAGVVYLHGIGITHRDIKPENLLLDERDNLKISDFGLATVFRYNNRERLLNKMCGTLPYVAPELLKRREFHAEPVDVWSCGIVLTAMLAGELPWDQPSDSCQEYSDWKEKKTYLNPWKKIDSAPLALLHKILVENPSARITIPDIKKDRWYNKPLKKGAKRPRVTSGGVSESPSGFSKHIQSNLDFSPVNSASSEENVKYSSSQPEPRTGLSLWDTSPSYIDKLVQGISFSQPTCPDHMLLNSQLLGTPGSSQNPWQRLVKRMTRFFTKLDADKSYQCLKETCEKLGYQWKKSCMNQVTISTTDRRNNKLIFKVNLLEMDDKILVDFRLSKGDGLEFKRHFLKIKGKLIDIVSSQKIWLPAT

For experiment [6], the target named is T5, CHK2 (Homo sapiens, UniProt O96017).
T5 construct: gene CHEK2

Experiment [7] concerns the target T6, ITK (Homo sapiens, UniProt Q08881).
T6 sequence (Q08881 1-620): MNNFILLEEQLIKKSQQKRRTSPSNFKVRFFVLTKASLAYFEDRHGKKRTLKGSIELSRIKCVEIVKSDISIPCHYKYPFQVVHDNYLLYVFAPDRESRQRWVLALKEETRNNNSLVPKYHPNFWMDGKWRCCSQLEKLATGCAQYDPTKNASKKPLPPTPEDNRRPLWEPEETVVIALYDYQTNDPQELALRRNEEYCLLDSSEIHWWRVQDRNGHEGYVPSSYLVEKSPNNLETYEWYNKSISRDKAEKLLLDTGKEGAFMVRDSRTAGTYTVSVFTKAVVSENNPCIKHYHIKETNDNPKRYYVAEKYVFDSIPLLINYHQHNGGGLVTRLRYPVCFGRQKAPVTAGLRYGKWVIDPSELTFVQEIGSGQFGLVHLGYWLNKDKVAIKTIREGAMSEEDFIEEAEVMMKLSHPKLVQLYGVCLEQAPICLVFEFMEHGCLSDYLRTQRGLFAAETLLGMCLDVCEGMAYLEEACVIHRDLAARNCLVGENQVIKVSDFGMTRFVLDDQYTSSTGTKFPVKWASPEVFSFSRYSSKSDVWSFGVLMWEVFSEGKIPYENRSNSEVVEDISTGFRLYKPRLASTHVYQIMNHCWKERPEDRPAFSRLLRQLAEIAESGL

For experiment [8], the target named is JAK1 (Homo sapiens, UniProt P23458).
For experiment [9], the target named is Lck (Homo sapiens, UniProt P06239).
Experiment [10] addresses T7, MEK1 (Homo sapiens, UniProt Q02750).
T7 construct: gene MAP2K1

Experiment [11] deals with T8, Srm (Homo sapiens, UniProt Q9H3Y6).
T8 construct: gene SRMS
T8 sequence (Q9H3Y6 whole entry): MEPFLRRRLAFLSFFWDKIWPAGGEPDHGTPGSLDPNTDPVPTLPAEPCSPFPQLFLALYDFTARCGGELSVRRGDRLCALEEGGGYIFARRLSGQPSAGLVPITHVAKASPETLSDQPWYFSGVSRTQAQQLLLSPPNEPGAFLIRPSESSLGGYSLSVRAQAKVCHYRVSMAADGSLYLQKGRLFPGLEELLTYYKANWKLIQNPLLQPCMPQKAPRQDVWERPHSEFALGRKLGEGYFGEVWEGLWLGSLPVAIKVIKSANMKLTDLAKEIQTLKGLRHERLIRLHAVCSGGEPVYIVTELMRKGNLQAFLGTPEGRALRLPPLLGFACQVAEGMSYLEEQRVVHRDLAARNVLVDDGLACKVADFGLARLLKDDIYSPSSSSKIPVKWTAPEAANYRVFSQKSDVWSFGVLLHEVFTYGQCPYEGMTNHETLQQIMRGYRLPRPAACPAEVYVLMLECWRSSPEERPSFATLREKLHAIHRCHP

Lck, sequence (P06239 whole entry): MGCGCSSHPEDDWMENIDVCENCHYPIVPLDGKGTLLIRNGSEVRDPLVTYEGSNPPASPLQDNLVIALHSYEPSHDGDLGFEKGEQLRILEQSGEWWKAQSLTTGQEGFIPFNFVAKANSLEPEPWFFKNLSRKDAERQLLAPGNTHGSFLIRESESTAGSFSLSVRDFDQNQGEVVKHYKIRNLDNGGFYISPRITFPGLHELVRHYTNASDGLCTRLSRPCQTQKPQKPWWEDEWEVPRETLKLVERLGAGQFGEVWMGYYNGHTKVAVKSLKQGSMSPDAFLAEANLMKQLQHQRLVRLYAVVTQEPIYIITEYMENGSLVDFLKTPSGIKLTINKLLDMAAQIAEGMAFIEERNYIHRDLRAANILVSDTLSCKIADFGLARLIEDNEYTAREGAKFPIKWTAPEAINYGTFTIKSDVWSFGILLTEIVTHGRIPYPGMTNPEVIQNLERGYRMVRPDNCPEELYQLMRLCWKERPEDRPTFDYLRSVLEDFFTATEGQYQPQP
T1 sequence (P00519 whole entry): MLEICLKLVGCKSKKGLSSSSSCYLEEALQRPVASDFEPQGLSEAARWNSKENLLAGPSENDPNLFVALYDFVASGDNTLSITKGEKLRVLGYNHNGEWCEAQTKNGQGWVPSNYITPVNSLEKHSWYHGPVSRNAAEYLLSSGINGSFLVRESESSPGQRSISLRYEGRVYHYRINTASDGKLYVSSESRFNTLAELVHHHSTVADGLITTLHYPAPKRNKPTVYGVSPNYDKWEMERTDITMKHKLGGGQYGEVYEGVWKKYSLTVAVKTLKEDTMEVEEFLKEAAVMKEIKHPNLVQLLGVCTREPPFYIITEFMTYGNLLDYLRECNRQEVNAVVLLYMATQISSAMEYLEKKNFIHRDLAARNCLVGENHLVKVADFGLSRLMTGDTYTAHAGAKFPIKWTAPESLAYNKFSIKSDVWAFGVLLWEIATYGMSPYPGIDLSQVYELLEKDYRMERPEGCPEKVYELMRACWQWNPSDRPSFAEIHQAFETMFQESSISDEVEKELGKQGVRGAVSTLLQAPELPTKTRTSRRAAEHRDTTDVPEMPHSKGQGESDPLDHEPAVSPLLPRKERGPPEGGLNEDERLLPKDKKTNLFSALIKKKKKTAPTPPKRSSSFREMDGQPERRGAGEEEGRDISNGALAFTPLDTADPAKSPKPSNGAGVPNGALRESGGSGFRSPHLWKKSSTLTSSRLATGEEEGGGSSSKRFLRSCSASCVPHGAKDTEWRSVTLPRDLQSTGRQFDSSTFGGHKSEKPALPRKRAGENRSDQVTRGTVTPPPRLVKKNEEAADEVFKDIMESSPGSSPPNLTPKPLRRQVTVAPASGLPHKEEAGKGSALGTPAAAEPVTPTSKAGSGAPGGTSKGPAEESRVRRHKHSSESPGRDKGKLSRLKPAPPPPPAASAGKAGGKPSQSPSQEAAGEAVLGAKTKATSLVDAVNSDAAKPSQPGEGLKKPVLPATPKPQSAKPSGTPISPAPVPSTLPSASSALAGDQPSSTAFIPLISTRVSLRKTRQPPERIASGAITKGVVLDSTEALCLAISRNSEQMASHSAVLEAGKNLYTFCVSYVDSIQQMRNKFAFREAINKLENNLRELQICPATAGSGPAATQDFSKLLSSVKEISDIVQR
JAK1, sequence (P23458 whole entry): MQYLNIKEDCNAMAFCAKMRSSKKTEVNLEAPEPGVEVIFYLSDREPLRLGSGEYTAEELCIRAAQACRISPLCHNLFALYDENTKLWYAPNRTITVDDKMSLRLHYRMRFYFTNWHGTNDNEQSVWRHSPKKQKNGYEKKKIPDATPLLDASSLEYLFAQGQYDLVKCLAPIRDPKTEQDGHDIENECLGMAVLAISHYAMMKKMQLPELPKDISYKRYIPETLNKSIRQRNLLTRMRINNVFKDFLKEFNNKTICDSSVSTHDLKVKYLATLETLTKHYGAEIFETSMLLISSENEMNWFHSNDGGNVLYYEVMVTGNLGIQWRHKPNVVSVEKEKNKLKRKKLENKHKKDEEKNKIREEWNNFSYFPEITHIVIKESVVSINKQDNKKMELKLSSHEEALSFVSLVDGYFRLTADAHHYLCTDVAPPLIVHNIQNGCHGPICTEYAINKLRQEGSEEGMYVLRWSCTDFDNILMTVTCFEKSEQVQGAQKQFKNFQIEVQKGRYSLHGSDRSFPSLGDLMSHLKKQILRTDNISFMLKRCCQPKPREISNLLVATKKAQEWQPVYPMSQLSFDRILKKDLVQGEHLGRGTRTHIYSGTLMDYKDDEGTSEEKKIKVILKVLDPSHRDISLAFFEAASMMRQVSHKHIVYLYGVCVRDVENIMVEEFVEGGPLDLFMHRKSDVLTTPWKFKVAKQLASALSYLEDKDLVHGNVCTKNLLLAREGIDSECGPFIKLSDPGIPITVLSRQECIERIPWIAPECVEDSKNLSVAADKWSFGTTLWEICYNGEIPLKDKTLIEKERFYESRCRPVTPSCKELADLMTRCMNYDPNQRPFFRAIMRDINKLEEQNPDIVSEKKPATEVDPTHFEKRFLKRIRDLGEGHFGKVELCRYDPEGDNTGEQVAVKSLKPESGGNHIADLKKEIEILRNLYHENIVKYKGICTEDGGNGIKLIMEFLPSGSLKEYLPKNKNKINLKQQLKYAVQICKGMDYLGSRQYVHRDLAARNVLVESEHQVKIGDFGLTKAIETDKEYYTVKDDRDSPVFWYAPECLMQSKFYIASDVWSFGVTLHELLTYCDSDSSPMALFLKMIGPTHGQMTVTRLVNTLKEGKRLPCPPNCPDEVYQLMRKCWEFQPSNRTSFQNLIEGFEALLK
T3 sequence (Q96GD4 whole entry): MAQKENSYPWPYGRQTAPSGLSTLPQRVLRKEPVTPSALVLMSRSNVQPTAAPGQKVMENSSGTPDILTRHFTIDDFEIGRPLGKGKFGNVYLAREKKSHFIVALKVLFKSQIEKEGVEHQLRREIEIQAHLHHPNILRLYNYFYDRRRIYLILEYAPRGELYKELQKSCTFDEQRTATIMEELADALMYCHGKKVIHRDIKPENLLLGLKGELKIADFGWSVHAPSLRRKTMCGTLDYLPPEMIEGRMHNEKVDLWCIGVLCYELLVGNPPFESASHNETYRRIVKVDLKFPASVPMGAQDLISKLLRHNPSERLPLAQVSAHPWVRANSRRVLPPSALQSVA
T5 sequence (O96017 whole entry): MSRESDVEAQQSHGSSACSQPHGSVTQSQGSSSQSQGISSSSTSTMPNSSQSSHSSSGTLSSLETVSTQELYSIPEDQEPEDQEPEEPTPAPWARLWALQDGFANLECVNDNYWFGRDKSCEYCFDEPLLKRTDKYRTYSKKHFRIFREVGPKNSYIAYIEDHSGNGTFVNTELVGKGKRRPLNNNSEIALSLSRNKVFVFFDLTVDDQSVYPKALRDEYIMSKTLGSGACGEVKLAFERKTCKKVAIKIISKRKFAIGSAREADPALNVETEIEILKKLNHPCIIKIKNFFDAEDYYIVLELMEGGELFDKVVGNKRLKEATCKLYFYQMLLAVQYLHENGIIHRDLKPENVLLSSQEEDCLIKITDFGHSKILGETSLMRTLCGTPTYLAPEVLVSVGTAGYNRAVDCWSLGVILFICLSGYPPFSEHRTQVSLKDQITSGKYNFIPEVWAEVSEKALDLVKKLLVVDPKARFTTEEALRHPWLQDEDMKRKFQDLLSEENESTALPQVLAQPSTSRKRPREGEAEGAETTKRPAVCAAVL
T7 sequence (Q02750 whole entry): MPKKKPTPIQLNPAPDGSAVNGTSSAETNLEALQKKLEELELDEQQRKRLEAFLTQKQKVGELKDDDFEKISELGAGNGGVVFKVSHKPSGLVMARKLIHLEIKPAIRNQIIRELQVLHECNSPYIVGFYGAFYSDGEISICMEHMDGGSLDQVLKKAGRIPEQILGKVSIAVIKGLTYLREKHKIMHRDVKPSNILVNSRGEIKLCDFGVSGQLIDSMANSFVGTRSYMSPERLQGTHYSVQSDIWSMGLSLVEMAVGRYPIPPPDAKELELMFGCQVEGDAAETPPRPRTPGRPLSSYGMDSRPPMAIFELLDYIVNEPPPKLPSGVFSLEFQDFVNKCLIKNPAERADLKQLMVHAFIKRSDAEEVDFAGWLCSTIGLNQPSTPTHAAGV

Take `CCOC(=O)Nc1cccc2c(Oc3ncccc3-c3ccnc(N[C@H]4CCCNC4)n3)c(C)ccc12` [G-1749]: the inhibition at 1 µM in experiment [1] is -7.5%; in [2], -9.5%; in experiment [3], 2.5%; in [4] it was 1.5%; in experiment [5] it was 7.5%; in experiment [6], 12%. The inhibition at 1 µM in experiment [7] is 5%; in experiment [8], -4%; in experiment [9], 13.5%; in [10], 2%; in experiment [11], -4.5%.

Regarding `CC#CC(=O)Nc1cccc2c(Oc3ncccc3-c3ccnc(N[C@H]4CCCNC4)n3)c(C)ccc12` [G-7658], the inhibition at 1 µM in [1] was -1.5%; in [2], -7%; in experiment [3], 2%; in experiment [4], 5.5%; in [5], 4%; in experiment [6] it was 8%. For the same molecule, the inhibition at 1 µM was 0% in [7]; 0.5% in experiment [8]; -28.5% in experiment [9]; 0.5% in experiment [10]; 3% in experiment [11].

For the molecule `O=c1cc(-c2n[nH]c3ncc(-c4c(F)cccc4F)cc23)nc(N2CCC(O)CC2)[nH]1` [G-9807], the inhibition at 1 µM in [1] came out at 94.4%; in experiment [2], 92%; in [3], 82.2%; in [4] it was 35.9%; in [5], 94.8%; in experiment [6], 95%. The inhibition at 1 µM in experiment [7] came out at 81.3%; in [8], 68.7%; in [9], 87.2%; in experiment [10], 95.4%; in experiment [11] it was 67.6%.
